These results are taken from ChEMBL document CHEMBL4219206, “Novel thioureido-benzenesulfonamide derivatives with enaminone linker as potent anticancer, radiosensitizers and VEGFR2 inhibitors” (Bioorg Med Chem Lett, 2018).

As a reminder, the IC50 is the point on the concentration scale where inhibition reaches its midpoint.

The subject of the first test is HepG2. As to the kind of experiment: cells. As to conditions: Homo sapiens, HepG2, light or radiation study.
Description: Phototoxicity against human HepG2 cells assessed as reduction in cell viability pretreated for 2 hrs followed by 8 Gy gamma irradiation for 17.73 mins measured after 48 hrs by MTT assay
In turn, `O=C(/C=C/Nc1ccc(F)cc1)c1ccc(NC(=S)Nc2ccc(S(=O)(=O)Nc3ccccn3)cc2)cc1` returned an IC50 of 0.23 µM.

`CCOC(=O)c1ccc(N/C=C/C(=O)c2ccc(NC(=S)Nc3ccc(S(=O)(=O)Nc4ccccn4)cc3)cc2)cc1` registered an IC50 of 0.39 µM.

Take `O=C(/C=C/Nc1ccccc1Cl)c1ccc(NC(=S)Nc2ccc(S(=O)(=O)Nc3ccccn3)cc2)cc1`: the IC50 was determined as 0.25 µM.

`Cc1ccc(C(=O)O)c(N/C=C/C(=O)c2ccc(NC(=S)Nc3ccc(S(=O)(=O)Nc4ccccn4)cc3)cc2)c1` registered an IC50 of 0.3 µM.

`CCOC(=O)N/C=C/C(=O)c1ccc(NC(=S)Nc2ccc(S(=O)(=O)Nc3ccccn3)cc2)cc1` gave an IC50 of 0.07 µM.

Compound `COC(=O)/C=C(/C)N/C=C/C(=O)c1ccc(NC(=S)Nc2ccc(S(=O)(=O)Nc3ccccn3)cc2)cc1` yielded an IC50 of 0.16 µM.

Another test relates to HepG2. As to the kind of experiment: cells. As to conditions: Homo sapiens, HepG2, 24 h.
Description: Antiproliferative activity against human HepG2 cells after 24 hrs by MTT assay
Compound `COC(=O)c1c(N/C=C/C(=O)c2cccc(NC(=S)Nc3ccc(S(=O)(=O)Nc4ccccn4)cc3)c2)sc(C)c1C` came in with an IC50 of 10.8 µM.

In turn, `O=C(/C=C/Nc1ccccn1)c1cccc(NC(=S)Nc2ccc(S(=O)(=O)Nc3ccccn3)cc2)c1` had an IC50 of 4.7 µM.

For `CCOC(=O)c1ccc(N/C=C/C(=O)c2cccc(NC(=S)Nc3ccc(S(=O)(=O)Nc4ccccn4)cc3)c2)cc1`, it took 1.5 µM to reach half-maximal inhibition (IC50).

Compound `O=C(/C=C/Nc1ccc(F)cc1)c1ccc(NC(=S)Nc2ccc(S(=O)(=O)Nc3ccccn3)cc2)cc1` registered an IC50 of 0.42 µM.

As to `O=C(/C=C/Nc1ccccc1)c1ccc(NC(=S)Nc2ccc(S(=O)(=O)Nc3ccccn3)cc2)cc1`, 3.9 µM corresponded to half-maximal inhibition (IC50).

Turning to `O=C(/C=C/Nc1ccccc1O)c1ccc(NC(=S)Nc2ccc(S(=O)(=O)Nc3ccccn3)cc2)cc1`, the midpoint of inhibition, the IC50, lay at 1.4 µM.

For `CC(=O)c1cccc(NC(=S)Nc2ccc(S(=O)(=O)Nc3ccccn3)cc2)c1`, the midpoint of inhibition, the IC50, lay at 5 µM.

`CN(C)/C=C/C(=O)c1ccc(NC(=S)Nc2ccc(S(=O)(=O)Nc3ccccn3)cc2)cc1` registered an IC50 of 3.5 µM.

For `Cc1c(N/C=C/C(=O)c2cccc(NC(=S)Nc3ccc(S(=O)(=O)Nc4ccccn4)cc3)c2)c(=O)n(-c2ccccc2)n1C`, half-maximal inhibition (IC50) required 11.4 µM.

With `O=C(/C=C/NCc1ccccc1)c1ccc(NC(=S)Nc2ccc(S(=O)(=O)Nc3ccccn3)cc2)cc1`, the IC50 stood at 2.3 µM.

`CCOC(=O)c1ccc(N/C=C/C(=O)c2ccc(NC(=S)Nc3ccc(S(=O)(=O)Nc4ccccn4)cc3)cc2)cc1` returned an IC50 of 0.66 µM.

The compound `COC(=O)/C=C(/C)N/C=C/C(=O)c1cccc(NC(=S)Nc2ccc(S(=O)(=O)Nc3ccccn3)cc2)c1` returned an IC50 of 1.5 µM.

The compound `COC(=O)c1c(N/C=C/C(=O)c2ccc(NC(=S)Nc3ccc(S(=O)(=O)Nc4ccccn4)cc3)cc2)sc(C)c1C` displayed an IC50 of 6.2 µM.

Take `CC(=O)c1ccc(NC(=S)Nc2ccc(S(=O)(=O)Nc3ccccn3)cc2)cc1`: the IC50 is 6.9 µM.

On to `O=S(=O)(Nc1ccccn1)c1ccc(N=C=S)cc1`, for which it took 5.5 µM to reach half-maximal inhibition (IC50).

For `CN(C)/C=C/C(=O)c1cccc(NC(=S)Nc2ccc(S(=O)(=O)Nc3ccccn3)cc2)c1`, the IC50 turned out to be 5.5 µM.

`O=C(/C=C/Nc1ccccc1)c1cccc(NC(=S)Nc2ccc(S(=O)(=O)Nc3ccccn3)cc2)c1` came in with an IC50 of 4.7 µM.

In turn, `O=C(/C=C/Nc1ccccn1)c1ccc(NC(=S)Nc2ccc(S(=O)(=O)Nc3ccccn3)cc2)cc1` came in with an IC50 of 3.1 µM.

With `O=C(/C=C/Nc1ccccc1O)c1cccc(NC(=S)Nc2ccc(S(=O)(=O)Nc3ccccn3)cc2)c1`, 2.9 µM corresponded to half-maximal inhibition (IC50).

In turn, `O=C(/C=C/NCc1ccccc1)c1cccc(NC(=S)Nc2ccc(S(=O)(=O)Nc3ccccn3)cc2)c1` gave an IC50 of 2.5 µM.

The compound `O=C(/C=C/Nc1ccc(F)cc1)c1cccc(NC(=S)Nc2ccc(S(=O)(=O)Nc3ccccn3)cc2)c1` yielded an IC50 of 1.2 µM.

`O=C(/C=C/Nc1ccccc1Cl)c1cccc(NC(=S)Nc2ccc(S(=O)(=O)Nc3ccccn3)cc2)c1` showed an IC50 of 0.5 µM.

In turn, `Cc1ccc(N/C=C/C(=O)c2cccc(NC(=S)Nc3ccc(S(=O)(=O)Nc4ccccn4)cc3)c2)c(C(=O)O)c1` came in with an IC50 of 1.6 µM.

Regarding `O=C(/C=C/Nc1ccccc1Cl)c1ccc(NC(=S)Nc2ccc(S(=O)(=O)Nc3ccccn3)cc2)cc1`, the IC50 was found to be 0.44 µM.

Consider `CNC(=O)c1cc(Oc2ccc(NC(=O)Nc3ccc(Cl)c(C(F)(F)F)c3)cc2)ccn1` [SORAFENIB], for which the IC50 was determined as 1.06 µM.

With `Cc1ccc(C(=O)O)c(N/C=C/C(=O)c2ccc(NC(=S)Nc3ccc(S(=O)(=O)Nc4ccccn4)cc3)cc2)c1`, half-maximal inhibition (IC50) was put at 0.58 µM.

`CCOC(=O)N/C=C/C(=O)c1ccc(NC(=S)Nc2ccc(S(=O)(=O)Nc3ccccn3)cc2)cc1` gave an IC50 of 0.12 µM.

With `COC(=O)/C=C(/C)N/C=C/C(=O)c1ccc(NC(=S)Nc2ccc(S(=O)(=O)Nc3ccccn3)cc2)cc1`, it took 0.29 µM to reach half-maximal inhibition (IC50).

In the case of `CCOC(=O)N/C=C/C(=O)c1cccc(NC(=S)Nc2ccc(S(=O)(=O)Nc3ccccn3)cc2)c1`, the half-inhibitory concentration (IC50) came to 1.9 µM.

Compound `Cc1c(N/C=C/C(=O)c2ccc(NC(=S)Nc3ccc(S(=O)(=O)Nc4ccccn4)cc3)cc2)c(=O)n(-c2ccccc2)n1C` had an IC50 of 8 µM.
